Where two headings read alike, the source gives them in different places.
What was measured:
[1] = test system: cotton aphid (Aphis gossypii); test: Aphis gossypii test (APHIGO spray treatment); format: in vivo; conditions: for pest or weed control at 20 ppm: 20 ppm a.i. alone
Description: Aphis gossypii Test (APHIGO Spray Treatment)
(§1) Solvent: 7 parts by weight of dimethylformamide
(§2) Emulsifier: 2 parts by weight of alkylaryl polyglycol ether
To prepare a ready-to-use active ingredient formulation, 1 part by weight of active ingredient is mixed with the specified amounts of solvent and emulsifier and the concentrate is diluted with emulsifier-containing water to the desired concentration. In the case that addition of ammonium salts, penetrants, or ammonium salts and penetrants is required, they are pipetted in each case into the finished preparation solution after dilution in a concentration of 1000 ppm each.
Cotton leaves (Gossypium hirsutum) highly infested by the cotton aphid (Aphis gossypii) are sprayed with an active ingredient formulation with the desired concentration.
After the desired period, the kill rate in % is determined. 100% means that all aphids have been killed; 0% means that no aphids have been killed.

[2] = test system: green peach aphid (Myzus persicae); test: Myzus persicae test (MYZUPE); format: in vivo; conditions: for pest or weed control at 4 ppm / pest or weed control at 20 ppm / pest or weed control at 0.8 ppm: Myzus persicae, 144 h, read-out: Kill in % after 6 days a.i.; for pest or weed control at 4 ppm: 4 ppm a.i. alone; for pest or weed control at 20 ppm: 20 ppm a.i. alone
Description: Myzus persicae Test (MYZUPE)
as §1, §2
To prepare an appropriate active ingredient formulation, 1 part by weight of active ingredient is mixed with the given amounts of solvent and emulsifier, and the concentrate is diluted with emulsifier-containing water to the desired concentration. In the case that addition of ammonium salts, penetrants, or ammonium salts and penetrants is required, they are pippetted in each case into the finished preparation solution after dilution in a concentration of 1000 ppm each.
Pepper plants (Capsicum annuum) highly infested by the green peach aphid (Myzus persicaei) are treated by spraying with the active ingredient formulation in the desired concentration.
After the desired time, the kill rate in % is determined. 100% means that all animals have been killed; 0% means that no animals have been killed.

[3] = 20 ppm a.i. + AMS and RME 1000 ppm each, cotton leaves sprayed, 6 days
[4] = 20 ppm a.i. + ammonium sulphate 1000 ppm, cotton leaves sprayed, 6 days
[5] = 20 ppm a.i. + rapeseed oil methyl ester 1000 ppm, cotton leaves sprayed, 6 days
[6] = Aphis gossypii, 144 h, cotton leaves sprayed, 6 days, read-out: Kill in % after 6 days a.i.
[7] = 4 ppm a.i. + AMS and RME 1000 ppm each, pepper plants sprayed, 6 days
[8] = 4 ppm a.i. + ammonium sulphate 1000 ppm, pepper plants sprayed, 6 days
[9] = 4 ppm a.i. + rapeseed oil methyl ester 1000 ppm, pepper plants sprayed, 6 days
[10] = 20 ppm a.i. + AMS and RME 1000 ppm each, pepper plants sprayed, 6 days
[11] = 20 ppm a.i. + ammonium sulphate 1000 ppm, pepper plants sprayed, 6 days
[12] = 20 ppm a.i. + rapeseed oil methyl ester 1000 ppm, pepper plants sprayed, 6 days
[13] = 0.8 ppm a.i. + AMS and RME 1000 ppm each, cotton leaves sprayed, 6 days
[14] = 0.8 ppm a.i. + ammonium sulphate 1000 ppm, cotton leaves sprayed, 6 days
[15] = 0.8 ppm a.i. + rapeseed oil methyl ester 1000 ppm, cotton leaves sprayed, 6 days
[16] = Aphis gossypii, 144 h, 0.8 ppm a.i. alone, cotton leaves sprayed, 6 days, read-out: Kill in % after 6 days a.i.
[17] = 0.8 ppm a.i. + AMS and RME 1000 ppm each, pepper plants sprayed, 6 days
[18] = 0.8 ppm a.i. + ammonium sulphate 1000 ppm, pepper plants sprayed, 6 days
[19] = 0.8 ppm a.i. + rapeseed oil methyl ester 1000 ppm, pepper plants sprayed, 6 days
[20] = 0.8 ppm a.i. alone, pepper plants sprayed, 6 days

Row | Structure (SMILES) | Kill in % after 6 days +AMS + RME [1, 3] | Kill in % after 6 days +AMS [1, 4] | Kill in % after 6 days +RME [1, 5] | pest or weed control at 20 ppm [1, 6] | Kill in % after 6 days +AMS + RME [2, 7] | Kill in % after 6 days +AMS [2, 8] | Kill in % after 6 days +RME [2, 9] | Kill in % after 6 days +AMS + RME [2, 10] | Kill in % after 6 days +AMS [2, 11] | Kill in % after 6 days +RME [2, 12] | pest or weed control at 4 ppm ([2]; pepper plants sprayed, 6 days) | pest or weed control at 20 ppm ([2]; pepper plants sprayed, 6 days) | Kill in % after 6 days +AMS + RME [1, 13] | Kill in % after 6 days +AMS [1, 14] | Kill in % after 6 days +RME [1, 15] | pest or weed control at 0.8 ppm [1, 16] | Kill in % after 6 days +AMS + RME [2, 17] | Kill in % after 6 days +AMS [2, 18] | Kill in % after 6 days +RME [2, 19] | pest or weed control at 0.8 ppm [2, 20] | further results
1 | O=C1C=C(N(Cc2ccc(C(F)(F)F)nc2)C2CC2)CO1 [Compound I-24, 4-(cyclopropyl {[6-(trifluoromethyl)pyrid-3-yl]methyl}amino)furan-2(5H)-one] | 90% | 85% | 85% | 50% | 75% | 20% | 85% | 98% | 90% | 95% | 15% | 75% | – | – | – | – | – | – | – | – | –
2 | O=C1C=C(N(Cc2ccc(F)nc2)CC(F)F)CO1 [Compound I-3, 4-{[(6-fluoropyrid-3-yl)methyl](2,2-difluoroethyl)amino}furan-2(5H)-one] | – | – | – | – | 100% | 80% | 85% | – | – | – | 0% | – | 90% | 15% | 35% | 0% | – | – | – | – | –
3 | C#CCN(Cc1ccc(Cl)nc1)C1=CC(=O)CCC1 [Compound I-36, 3-{[(6-chloropyrid-3-yl)methyl](prop-2-yn-1-yl)amino}cyclohex-2-en-1-one] | 65% | 15% | 45% | 30% | – | – | – | 85% | 25% | 85% | – | 40% | – | – | – | – | – | – | – | – | Kill in % after 6 days +AMS + RME ([1]; 100 ppm a.i. + AMS and RME 1000 ppm each, cotton leaves sprayed, 6 days): 99%; Kill in % after 6 days +AMS ([1]; 100 ppm a.i. + ammonium sulphate 1000 ppm, cotton leaves sprayed, 6 days): 98%; Kill in % after 6 days +RME ([1]; 100 ppm a.i. + rapeseed oil methyl ester 1000 ppm, cotton leaves sprayed, 6 days): 80%; pest or weed control at 100 ppm ([1]; Aphis gossypii, 144 h, 100 ppm a.i. alone, cotton leaves sprayed, 6 days, read-out: Kill in % after 6 days a.i.): 55%
4 | O=C1C=C(N(Cc2ccc(Cl)nc2)CC(F)F)CO1 [Compound I-7, 4-{[(6-chloropyrid-3-yl)methyl](2,2-difluoroethyl)amino}furan-2(5H)-one] | – | – | – | – | – | – | – | – | – | – | – | – | 80% | 60% | 70% | – | 90% | 45% | 80% | – | pest or weed control at 0.8 ppm ([1]; Aphis gossypii, 144 h, read-out: Kill in % after 6 days a.i.): 60%; pest or weed control at 0.8 ppm [2]: 55%
5 | CN(Cc1ccc(Br)nc1)C1=CC(=O)OC1 [Compound I-26, 4-{[(6-bromopyrid-3-yl)methyl](methyl)amino}furan-2(5H)-one] | – | – | – | – | – | – | – | – | – | – | – | – | 98% | 70% | 98% | 90% | 95% | 55% | 100% | 65% | –
6 | CN(Cc1ccc(C(F)(F)F)nc1)C1=CC(=O)OC1 [Compound I-23, 4-(methyl {[6-(trifluoromethyl)pyrid-3-yl]methyl}amino)furan-2(5H)-one] | – | – | – | – | – | – | – | – | – | – | – | – | 25% | 15% | 50% | 10% | 80% | 10% | 75% | 35% | –
